In brackets after ≈: the same amount, converted by molar mass. Several values for one entry are separate records, joined by “and”; a condition that tells them apart may be missing. Equal values may be shown once. Read-outs that look alike come from different tables or passages of the source.
Columns and labels:
Mtb CDC1551 [1] = test: Depletion of intracellular ATP, Mtb on glucose; details: read-out: ATP IC50 (W1) CDC1551, glucose media; glucose as sole carbon source; 1 week
Protocol: (Mtb) H37Rv or CDC1551 strains were grown in Middlebrook 7H9 broth medium (Difco) supplemented with 0.3 g/L casitone, 0.81 g/L NaCl, 0.05% (v/v) tyloxapol, and either 97 mg/L cholesterol, 4 g/L glucose, or 0.2% glycerol. For inhibitor assays, a 10-fold serial dilution of the test compounds was made in the desired medium in duplicate rows of a 96-well plate. Mtb cells were then added to all the wells at the final concentration of 1 × 10^4 CFU, and plates were incubated at 37 °C for up to 15 days. Minimum inhibitory concentrations (MIC99) were determined using the Microplate Alamar Blue Assay (MABA) on day 15.
BacTiter Glo reagent (Promega) was added to microtiter plates (1:10 dilution) and luminescence was recorded after 15 min of incubation at room temperature. […] Isoniazid or p-amino salicylic acid were used as positive control compounds for all experiments. Reported MIC and IC50 values are the mean of duplicate treatments.

CYP1A = target: T1, CYP1A (Homo sapiens, UniProt P05177); test: Inhibition of human liver microsomal P450s; format: in vitro ADME
T1 construct: from tissue; host or cells: human liver microsomes
T1 sequence (P05177 2-516 limits assumed): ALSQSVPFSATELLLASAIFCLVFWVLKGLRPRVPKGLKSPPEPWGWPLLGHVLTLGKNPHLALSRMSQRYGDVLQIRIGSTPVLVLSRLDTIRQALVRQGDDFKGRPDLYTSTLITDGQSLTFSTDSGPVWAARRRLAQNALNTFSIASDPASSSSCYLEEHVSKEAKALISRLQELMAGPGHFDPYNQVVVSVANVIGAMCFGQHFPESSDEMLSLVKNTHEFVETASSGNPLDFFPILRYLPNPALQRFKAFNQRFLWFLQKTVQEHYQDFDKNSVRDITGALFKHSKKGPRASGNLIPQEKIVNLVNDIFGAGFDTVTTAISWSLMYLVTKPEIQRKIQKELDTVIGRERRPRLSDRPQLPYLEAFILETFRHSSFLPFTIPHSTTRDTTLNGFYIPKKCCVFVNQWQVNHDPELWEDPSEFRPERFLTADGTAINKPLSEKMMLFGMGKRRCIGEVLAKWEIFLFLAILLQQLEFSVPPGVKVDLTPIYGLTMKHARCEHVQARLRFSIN
From the text: (§1) Table S8. Inhibition of human liver microsomal P450s. Inhibition constants (IC 50 values, µM) of
(§2) following substrates: CYP1A-ethoxyresorufin, CYP2C19- mephenytoin, CYP2C9-tolbutamide, CYP2D6-
(§3) dextromethorphan, CYP3A4-midazolam/testosterone.

CYP3A4 = target: T2, CYP3A4 (Homo sapiens, UniProt P08684); test: Inhibition of human liver microsomal P450s; format: in vitro ADME
T2 construct: from tissue; host or cells: human liver microsomes
From the text: as §1, §2, §3

CYP2C19 = target: T3, CYP2C19 (Homo sapiens, UniProt P33261); test: Inhibition of human liver microsomal P450s; format: in vitro ADME
T3 construct: from tissue; host or cells: human liver microsomes
From the text: as §1, §2, §3

CYP2C9 = target: T4, CYP2C9 (Homo sapiens, UniProt P11712); test: Inhibition of human liver microsomal P450s; format: in vitro ADME
T4 construct: from tissue; host or cells: human liver microsomes
From the text: as §1, §2, §3

CYP2D6 = target: T5, CYP2D6 (Homo sapiens, UniProt P10635); test: Inhibition of human liver microsomal P450s; format: in vitro ADME
T5 construct: from tissue; host or cells: human liver microsomes
From the text: as §1, §2, §3

Mtb (Erdman) = test: Extracellular Mtb (Erdman) growth on cholesterol-supplemented (0.01%) media, MABA; format: cell-based, Mycobacterium tuberculosis; details: Mycobacterium tuberculosis, ERDMAN, 168 h, MABA 1 week post-compound treatment, mean ± SD n = 3, read-out: mixed media IC50 (Erdman)
[2] = test system: Mtb/recA reporter (DNA damage response); format: cell-based, Mycobacterium tuberculosis; details: 50–0.05 μM, days 1, 2, 4, 7
[3] = test system: uninfected THP-1 macrophages; test: THP-1 cytotoxicity (ATPLite); details: concentrations up to 50 μM
[4] = test system: Mtb H37Rv pATB45luc in THP-1 macrophages; test: microbe, parasite or virus in culture; format: cell-based; details: Mycobacterium tuberculosis, 120 h, 5 days post-compound treatment, mean ± SD n = 2, read-out: intracellular growth Mtb IC50
Mtb CDC1551 [5] = test: Depletion of intracellular ATP (BacTiter Glo), Mtb on cholesterol; format: cell-based; details: Mycobacterium tuberculosis, cholesterol as sole carbon source
[6] = test system: Mtb/iniB reporter (cell wall damage response); format: cell-based, Mycobacterium tuberculosis; details: 50–0.05 μM, days 1, 2, 4, 7
[7] = test system: MDR-TB strain K26b00MR 113; test: microbe, parasite or virus in culture; format: cell-based, Mycobacterium tuberculosis; details: Mycobacterium tuberculosis, K26b00MR 113
Mtb H37Rv [8] = test: Depletion of intracellular ATP (BacTiter Glo), Mtb on cholesterol; format: cell-based, Mycobacterium tuberculosis; details: 2 weeks post-compound treatment
CYP125 [9] = target: T6, CYP125 (Mycobacterium tuberculosis, UniProt P9WPP1); test: biochemical; format: binding
[10] = test system: several human P450 isoforms (panel: CYP1A, CYP2C19, CYP2C9, CYP2D6, CYP3A4); test: in vitro; format: in vitro ADME
Protocol: As several P450 isoforms were inhibited as concentrations <5 μM, the compound has potential to cause drug–drug interactions and further optimization of the benzylpyridine scaffold to improve CYP125/142 selectivity would be required for in vivo applications.
as §1, §2, §3

Mtb H37Rv [11] = test: Extracellular Mtb growth on cholesterol, MABA MIC99; format: cell-based, Mycobacterium tuberculosis; details: Mycobacterium tuberculosis, H37RV
[12] = test system: Mtb/radA reporter (DNA damage response); format: cell-based, Mycobacterium tuberculosis; details: 50–0.05 μM, days 1, 2, 4, 7
CYP125 [13] = target: T6, CYP125; test: LC-MS substrate turnover assay (cholest-4-en-3-one); format: biochemical
Mtb CDC1551 [14] = test: Extracellular Mtb growth on cholesterol, MABA MIC99; format: cell-based, Mycobacterium tuberculosis; details: Mycobacterium tuberculosis, CDC1551, 336 h; cholesterol as sole carbon source; 2 weeks post-compound treatment; read-out: MABA-MIC99 (W2) CDC1551, cholesterol

T6 sequence (P9WPP1 whole entry, canonical isoform): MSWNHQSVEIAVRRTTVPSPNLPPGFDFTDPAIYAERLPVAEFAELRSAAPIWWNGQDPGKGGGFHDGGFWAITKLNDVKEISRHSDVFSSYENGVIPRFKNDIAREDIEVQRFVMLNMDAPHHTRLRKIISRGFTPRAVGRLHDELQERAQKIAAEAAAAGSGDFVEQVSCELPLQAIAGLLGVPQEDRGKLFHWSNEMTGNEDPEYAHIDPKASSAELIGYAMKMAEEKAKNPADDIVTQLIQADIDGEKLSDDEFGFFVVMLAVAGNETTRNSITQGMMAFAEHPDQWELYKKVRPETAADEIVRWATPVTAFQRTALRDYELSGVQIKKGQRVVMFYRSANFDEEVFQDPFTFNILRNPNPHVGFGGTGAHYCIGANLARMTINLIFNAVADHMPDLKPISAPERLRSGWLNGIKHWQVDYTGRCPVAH
T2 sequence (P08684 whole entry): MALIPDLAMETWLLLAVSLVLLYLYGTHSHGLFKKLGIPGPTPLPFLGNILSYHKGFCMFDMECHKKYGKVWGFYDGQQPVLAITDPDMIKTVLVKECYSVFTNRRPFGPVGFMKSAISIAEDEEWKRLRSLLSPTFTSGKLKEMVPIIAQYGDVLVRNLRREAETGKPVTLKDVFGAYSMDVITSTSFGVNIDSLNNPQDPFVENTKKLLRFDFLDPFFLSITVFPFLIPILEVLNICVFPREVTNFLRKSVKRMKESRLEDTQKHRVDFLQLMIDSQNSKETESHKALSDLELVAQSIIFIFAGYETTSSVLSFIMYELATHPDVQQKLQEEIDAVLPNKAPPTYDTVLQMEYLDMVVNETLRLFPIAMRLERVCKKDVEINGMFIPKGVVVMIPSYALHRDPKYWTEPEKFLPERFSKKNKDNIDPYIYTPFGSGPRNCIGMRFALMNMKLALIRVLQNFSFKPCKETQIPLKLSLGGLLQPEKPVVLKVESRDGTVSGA
T5 sequence (P10635 whole entry): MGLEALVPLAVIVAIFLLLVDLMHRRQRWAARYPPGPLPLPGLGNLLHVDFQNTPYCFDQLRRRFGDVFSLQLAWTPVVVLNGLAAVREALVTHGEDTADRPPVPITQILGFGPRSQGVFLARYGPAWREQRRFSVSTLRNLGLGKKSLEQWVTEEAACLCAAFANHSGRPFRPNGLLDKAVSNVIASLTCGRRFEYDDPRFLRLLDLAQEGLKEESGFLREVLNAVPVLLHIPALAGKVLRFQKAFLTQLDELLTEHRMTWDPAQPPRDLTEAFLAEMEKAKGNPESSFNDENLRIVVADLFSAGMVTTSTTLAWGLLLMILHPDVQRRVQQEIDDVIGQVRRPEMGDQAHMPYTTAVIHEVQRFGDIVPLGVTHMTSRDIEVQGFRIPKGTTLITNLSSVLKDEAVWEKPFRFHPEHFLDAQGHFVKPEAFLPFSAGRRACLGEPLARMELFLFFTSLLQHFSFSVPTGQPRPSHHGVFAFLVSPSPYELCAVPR
T4 sequence (P11712 whole entry): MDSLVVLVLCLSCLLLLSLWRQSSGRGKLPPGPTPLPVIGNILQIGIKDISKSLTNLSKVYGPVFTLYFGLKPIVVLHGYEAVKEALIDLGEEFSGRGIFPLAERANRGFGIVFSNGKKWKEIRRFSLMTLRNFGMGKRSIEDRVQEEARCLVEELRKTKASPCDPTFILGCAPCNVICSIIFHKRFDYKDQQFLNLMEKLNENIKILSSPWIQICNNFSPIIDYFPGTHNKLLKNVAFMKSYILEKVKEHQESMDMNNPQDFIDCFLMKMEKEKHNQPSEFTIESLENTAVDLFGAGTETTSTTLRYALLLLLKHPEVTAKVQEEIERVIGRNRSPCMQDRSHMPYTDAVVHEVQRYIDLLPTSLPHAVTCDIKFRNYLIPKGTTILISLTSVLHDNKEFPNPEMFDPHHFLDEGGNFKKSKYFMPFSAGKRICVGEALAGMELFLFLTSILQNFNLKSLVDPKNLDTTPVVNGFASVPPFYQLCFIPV
T3 sequence (P33261 whole entry): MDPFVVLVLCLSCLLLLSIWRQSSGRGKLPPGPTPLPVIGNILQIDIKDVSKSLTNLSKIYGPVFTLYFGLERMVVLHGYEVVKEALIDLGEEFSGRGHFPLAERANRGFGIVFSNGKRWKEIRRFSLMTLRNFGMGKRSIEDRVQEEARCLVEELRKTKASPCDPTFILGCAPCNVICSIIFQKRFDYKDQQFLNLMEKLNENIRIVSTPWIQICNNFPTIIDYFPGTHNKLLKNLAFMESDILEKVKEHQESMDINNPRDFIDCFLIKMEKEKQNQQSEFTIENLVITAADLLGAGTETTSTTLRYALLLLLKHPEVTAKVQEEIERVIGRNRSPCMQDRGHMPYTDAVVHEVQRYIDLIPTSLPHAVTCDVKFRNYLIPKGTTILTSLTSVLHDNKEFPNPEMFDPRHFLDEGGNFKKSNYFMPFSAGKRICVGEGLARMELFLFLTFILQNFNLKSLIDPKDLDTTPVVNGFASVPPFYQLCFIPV

With `COc1ccc(CNc2ccc(Cc3ccncc3)cc2)cc1` [5m, N-(4-Methoxybenzyl)-4-(pyridin-4-ylmethyl)aniline] the IC50 (Mtb CDC1551 [1]) was 4700 nM, the IC50 (CYP1A) was 820 nM and the IC50 (CYP3A4; CYP3A4 IC50 (midazolam), substrate midazolam (first value of cell)) was 520 nM. For the same compound, the IC50 (CYP3A4; CYP3A4 IC50 (testosterone), substrate testosterone (second value of cell)) was 1820 nM, the IC50 (CYP2C19) was 440 nM and the IC50 (CYP2C9) was 1860 nM. For the same compound, the IC50 (CYP2D6) was 330 nM, the IC50 (Mtb (Erdman)) was 2900 ± 190 nM and the “upregulation of recA reporter” value [2] was “did not induce the upregulation”. The “THP-1 cytotoxicity in words” value [3] was “no effect on THP-1 cell viability”, the IC50 [4] was 1700 ± 180 nM and the IC50 (Mtb CDC1551 [5]; CDC1551, 168 h, 1 week post-compound treatment, read-out: ATP-IC50 (W1) CDC1551, cholesterol) was 590 nM. For the same compound, the IC50 (Mtb CDC1551 [5]; CDC1551, 336 h, 2 weeks post-compound treatment, read-out: ATP-IC50 (W2) CDC1551, cholesterol) was 9400 nM, the “upregulation of iniB reporter” value [6] was “did not induce the upregulation” and the MIC90 ([7]; 168 h, read-out: MIC90 (W1) MDR-TB, MABA 1 week post-compound treatment) was 0.39 µM (≈ 0.119 µg/mL). It also gave an MIC90 ([7]; 336 h, read-out: MIC90 (W2) MDR-TB, MABA 2 weeks post-compound treatment) of 12.5 µM (≈ 3.8 µg/mL), an IC50 (Mtb H37Rv [8]; Mycobacterium tuberculosis, H37RV, 336 h, H37Rv, bovine serum albumin, read-out: ATP IC50 (W2), cholesterol media with BSA) of 2300 nM and an IC50 (Mtb H37Rv [8]; Mycobacterium tuberculosis, H37RV, 336 h, H37Rv, casitone, read-out: ATP IC50 (W2), cholesterol media with casitone) of 1500 nM. For the same compound, the IC50 (Mtb H37Rv [8]; Mycobacterium tuberculosis, H37RV, 336 h, cholesterol as sole carbon source, read-out: ATP-IC50 (W2) H37Rv, cholesterol) was 1200 nM, the IC50 (Mtb H37Rv [8]; cholesterol as sole carbon source, read-out: ATP-IC50 (W2) H37Rv, cholesterol) was 1100 nM and the “improvement in binding affinity KD 1a/5m, CYP125” value (CYP125 [9]) was over 1000 fold. The “ligand efficiency (LE)” value (CYP125 [9]) was over 0.4, the “group efficiency (GE) of the benzylamine” value (CYP125 [9]; CYP125 and CYP142) was 0.20–0.50 and the Kd (CYP125 [9]; KD, dual CYP125/142 ligand) was 0.04 to 0.16 µM and ~0.1 µM. For the same compound, the “ΔΔG [5m-1a], CYP125” value (CYP125 [9]; proportion of binding affinity attributed to the 1a-ii hotspot) was 0.5, the Kd (CYP125 [9]; read-out: KD (μM) CYP125) was 0.04 ± 0.021 µM and the IC50 [10] was under 5000 nM. For the same compound, the MIC99 (Mtb H37Rv [11]; 336 h, cholesterol as sole carbon source, 2 weeks post-compound treatment, read-out: MABA-MIC99 (W2) H37Rv, cholesterol) was 1.5 µM, the MIC99 (Mtb H37Rv [11]; 336 h, cholesterol as sole carbon source, 2 weeks, conversion of 1.5 μM, read-out: MIC99 H37Rv, cholesterol) was about 0.46 µg/mL and the MIC99 (Mtb H37Rv [11]; read-out: MIC99, growth of Mtb in extracellular assays) was 0.4 to 1.5 µM. The “upregulation of radA reporter” value [12] was “did not induce the upregulation”, the IC50 (CYP125 [13]; CYP125 0.5 μM, cholest-4-en-3-one 5 µM, LC-MS, read-out: CYP125A1 IC50) was 350 ± 40 nM and the Ki (CYP125 [13]; estimated by Cheng-Prusoff, cholest-4-en-3-one Km CYP125 = 2.1 µM, read-out: CYP125A1 KI) was < 1000 nM and 100 nM. The Ki (CYP125 [13]; one bound given for both enzymes, read-out: KI, enzyme activity in vitro (CYP125/142)) was under 100 nM, the Ki (CYP125 [13]; one range given for both enzymes, read-out: KI, catalytic activity in vitro (CYP125/142)) was 50 to 100 nM and the MIC99 (Mtb CDC1551 [14]) was 13 µM (≈ 3.96 µg/mL).
